Experimental data taken from US20220249511A1, “METHODS FOR THE TREATMENT OF KELOID, HYPERTROPHIC SCARS AND/OR HYPERPIGMENTATION DISORDERS” (INSERM (INSTITUT NATIONAL DE LA SANTÉ ET DE LA RECHERCHE …, priority 2019, published 2022).

Tests used:
[1] = test system: AKT/mTOR pathway; assay: Western blot of P-AKT and P-S6RP in primary fibroblasts derived from pathological scars; assay type: cell-based, human; conditions: starved 12 hours, exposed 24 h, vs DMSO, FIG. 3A
Protocol: (§1) Skin samples (hypertrophic, keloids and burn scars) were collected during surgical procedures. To generate dermal fibroblast cultures, skin samples were minced and incubated at room temperature in 0.05% trypsin-EDTA (ThermoFisher) solution for 30 min with gentle shaking. Cells were collected by centrifuging at 700 g for 10 min, resuspended in cell culture media containing 25% FBS, and plated onto 24 well plates to establish lines. Fibroblast cultures were grown and maintained in 1× MEM (Corning) supplemented with 25% FBS and penicillin/streptomycin (Corning) to a final concentration of 100 IU penicillin and 500 μg.mL-1 streptomycin.
(§2) Cells at similar population doubling were plated 1:4 from confluent cultures and allowed to grow until ˜80% confluent. Cells were then starved during 12 hours and exposed during 24 h to either BYL719 (0.1 or 1 μmol.L-1; MedChem Express), taselisib (0.1 or 2. μmol.L-1; MedChem Express) or miransertib (0.1 or […]) or equal volume of DMSO. We also performed ex vivo keloid scars culture. Keloids were exposed during 24h to either BYL719 (0.1 or 1 μmol.L-1; MedChem Express) or equal volume of DMSO.
Cultures were rinsed with 1X PBS, treated for 10 min with 0.05% Trypsin, collected by centrifugation at 4° C., and pellets were flash frozen on dry ice. Protein lysates were collected by directly adding 1× RIPA buffer containing protease and phosphatase inhibitors. Each experiment was performed in duplicate and repeated at least three times
Western blots were performed as previously described^31. Briefly, protein extracts from the scars and primary culture of fibroblasts were resolved by SDS-PAGE before being transferred onto the appropriate membrane and incubated with anti-P-AKT (Ser473) antibody (Cell Signaling Technology, ref# 4060), anti-P-S6RP antibody (Cell Signaling Technology, ref# 5364) and anti-GAPDH (Merck Millipore, ref#374), followed by the appropriate peroxidase-conjugated secondary antibody. […]

[2] = test system: keloids; assay: Proliferation rate in ex vivo keloid scars culture; assay type: cell-based, human; conditions: ex vivo keloids exposed 24h to 0.1 or 1 μmol.L-1, vs DMSO; FIG. 3E
Protocol: (§3) Paraffin-embedded kidney sections (4-um) were incubated with anti-P-AKT (Ser473) antibody (Cell Signaling Technology, ref# 4060), anti-P-S6RP antibody (Cell Signaling Technology, ref# 5364), anti-a-smooth muscle cell antibody (Sigma Aldrich, ref# A5228), and anti-KI67 antibody (Thermo Fisher Scientific, ref# RM-9106-51) Immunofluorescence studies were analyzed using a Zeiss LSM 700 confocal microscope.
as §2

[3] = test system: hypertrophic and keloids scars; assay: Cohort of PROS patients treated with oral BYL719: hypertrophic and keloid scars; assay type: in vivo, human; conditions: daily dose of 250 mg in adults or 50 mg in children, FIG. 1
Protocol: (§4) The cohort is composed by 19 patients including 15 children (ranging from 4 to 50 years old). Children received 50 mg daily while adults received 250 mg daily. BYL719 was delivered orally every morning with breakfast. Patients were followed at regular intervals:
(§5) weekly for 8 weeks, every two weeks for 1 month and then monthly. All patients underwent clinical examination, and areas of overgrowth, nevi as well as visible scars were photographed before and after BYL719 introduction. All pictures were taken by a single operator, always using the same camera (12-megapixel camera), in the same room and at the same distance. […] Length and surface of the scars were measured using Image J.

[4] = test system: AKT/mTOR pathway; assay: Western blot of ex vivo keloid scars culture; assay type: cell-based, human; conditions: ex vivo keloids exposed 24h to 0.1 or 1 μmol.L-1, vs DMSO; FIG. 3D
Protocol: as §2
Western blots were performed as previously described^31. Briefly, protein extracts from the scars and primary culture of fibroblasts were resolved by SDS-PAGE before being transferred onto the appropriate membrane and incubated with anti-P-AKT (Ser473) antibody (Cell Signaling Technology, ref# 4060), anti-P-S6RP antibody (Cell Signaling Technology, ref# 5364) and anti-GAPDH (Merck Millipore, ref#374), followed by the appropriate peroxidase-conjugated secondary antibody. Chemiluminescence was acquired using a Fusion FX7 camera (Vilbert Lourmat) and densitometry was performed using the Bio1D software (Certain Tech).

[5] = test system: Tgfβ mRNA; assay: Tgfβ mRNA expression in primary fibroblasts derived from pathological scars; assay type: cell-based, human; conditions: exposed 24 h, vs DMSO, FIG. 3C
Protocol: as §1, §2
(§6) Total RNA was isolated from snap-frozen kidneys using the TRIzol reagent (Sigma) according to the manufacture's protocol. First-strand cDNA was synthesized using the MML-V reverse transcriptase (Promega, USA). Real-time PCR was performed using the iQ-SYBR Green supermix (BioRad) and the iQ5 Multicolor Real-Time PCR Detection System (BioRad) for mRNA detection. 18S rRNA was used as a house keeping gene.

[6] = test system: nevi; assay: Cohort of PROS patients treated with oral BYL719: nevus color (visual scale); assay type: in vivo, human; conditions: arbitrary visual scale 5: dark color to 1: normal skin color, FIG. 1
Protocol: as §4, §5
As shown on FIG. 1, inventors have observed that during treatment with oral BYL719, the length, the area and the thickness of the different scars were dramatically reducing without additional treatment. […] Nevus color was evaluated using an arbitrary visual scale ranging from (5: dark color to 1: normal skin color).

[7] = test system: Tgfβ mRNA; assay: Tgfβ mRNA expression in ex vivo keloid scars culture; assay type: cell-based, human; conditions: ex vivo keloids exposed 24h to 0.1 or 1 μmol.L-1, vs DMSO; FIG. 3F
Protocol: as §2, §6

[8] = test system: burn scar; assay: PROS patient treated with oral BYL719: burn scar; assay type: in vivo, human; conditions: one PROS patient with a large burn scar on the left thigh, FIG. 2
Protocol: as §4, §5

[9] = test system: primary fibroblasts derived from pathological scars; assay: Proliferation of primary fibroblasts derived from pathological scars; assay type: cell-based, human; conditions: exposed 24 h, vs DMSO, FIG. 3B
Protocol: as §3, §1, §2

## Cc1nc(NC(=O)N2CCC[C@H]2C(N)=O)sc1-c1ccnc(C(C)(C)C(F)(F)F)c1 [BYL719, Alpelisib]
[1]
  AKT/mTOR pathway (P-AKT and P-S6RP in WB): efficiently block
[2]
  proliferation rate: reduce
[3]
  length of the hypertrophic and keloids scars: progressive improvement
  surface area of the hypertrophic and keloids scars: progressive improvement
  thickness of the hypertrophic and keloids scars: progressive improvement
[4]
  AKT/mTOR pathway (Western blot): inhibits
[5]
  mRNA expression of Tgfβ, a marker of fibrosis: reduced
[6]
  nevus color: spontaneously decolorating
[7]
  Tgfβ mRNA expression: reduce
[8]
  size of the burn scar: reduction in size
[9]
  proliferation: reduced

## Nc1ncccc1-c1nc2ccc(-c3ccccc3)nc2n1-c1ccc(C2(N)CCC2)cc1 [miransertib, Miransertib]
[1]
  AKT/mTOR pathway (P-AKT and P-S6RP in WB): efficiently block
[5]
  mRNA expression of Tgfβ, a marker of fibrosis: reduced
[9]
  proliferation: reduced

## Cc1nc(-c2cn3c(n2)-c2ccc(-c4cnn(C(C)(C)C(N)=O)c4)cc2OCC3)n(C(C)C)n1 [taselisib, Taselisib]
[1]
  AKT/mTOR pathway (P-AKT and P-S6RP in WB): efficiently block
[5]
  mRNA expression of Tgfβ, a marker of fibrosis: reduced
[9]
  proliferation: reduced
